Reference: paper PMC7413254 (Nature Communications, 2020)
Like-named read-outs stand apart in the source and are kept apart here.

How the values were obtained:
Conditions in all cases: trans-stimulation, solute 2 mM
[1] = test system: non-expressing oocytes; format: cell-based, Xenopus laevis
How it was run: (§1)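 Oocytes (ten per treatment, ≥4 independent frogs/days) were preloaded by injecting VF-6 in 25 nL ND96 at pH 5.0, 5.5, 6.0 or 7.0, or Na^+-free choline buffer, then uptake run 1.5 h, 27.5 °C, ND96 pH 5.5 by default. Internal concentrations assumed ~400 nL oocyte volume.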

[2] = biological target: PfCRT^Ecu1110 (Plasmodium falciparum, UniProt Q9N623, A220S/I356L/K76T/N326D); assay: cell-based; format: cell-based
How it was run: as §1

[3] = biological target: T1, PfNT1 (Plasmodium falciparum, UniProt Q8IDM6); assay: cell-based; format: cell-based
T1 construct: expressed in transfected cells; host or cells: Xenopus laevis oocytes (stage V-VI), cRNA-injected
How it was run: as §1

[4] = biological target: PfCRT^Dd2 (Plasmodium falciparum, UniProt Q9N623, A220S/I356T/K76T/M74I/N326S/N75E/Q271E/R371I); assay: cell-based; format: cell-based
How it was run: as §1

[5] = biological target: PfCRT^3D7 (Plasmodium falciparum, UniProt Q8IBZ9); assay: cell-based; format: cell-based
How it was run: as §1

Sequence of PfCRT^3D7 (Q8IBZ9 59-398): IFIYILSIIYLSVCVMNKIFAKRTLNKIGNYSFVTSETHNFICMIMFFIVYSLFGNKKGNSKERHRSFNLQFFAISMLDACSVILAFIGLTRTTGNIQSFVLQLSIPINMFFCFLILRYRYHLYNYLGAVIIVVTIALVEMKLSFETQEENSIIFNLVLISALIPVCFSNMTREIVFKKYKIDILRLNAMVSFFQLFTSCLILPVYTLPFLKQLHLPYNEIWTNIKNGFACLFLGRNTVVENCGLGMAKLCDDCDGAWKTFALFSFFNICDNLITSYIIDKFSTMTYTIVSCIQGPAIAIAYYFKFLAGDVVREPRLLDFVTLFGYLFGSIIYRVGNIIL
Sequence of PfCRT^Ecu1110 (Q9N623 whole entry A220S/I356L/K76T/N326D): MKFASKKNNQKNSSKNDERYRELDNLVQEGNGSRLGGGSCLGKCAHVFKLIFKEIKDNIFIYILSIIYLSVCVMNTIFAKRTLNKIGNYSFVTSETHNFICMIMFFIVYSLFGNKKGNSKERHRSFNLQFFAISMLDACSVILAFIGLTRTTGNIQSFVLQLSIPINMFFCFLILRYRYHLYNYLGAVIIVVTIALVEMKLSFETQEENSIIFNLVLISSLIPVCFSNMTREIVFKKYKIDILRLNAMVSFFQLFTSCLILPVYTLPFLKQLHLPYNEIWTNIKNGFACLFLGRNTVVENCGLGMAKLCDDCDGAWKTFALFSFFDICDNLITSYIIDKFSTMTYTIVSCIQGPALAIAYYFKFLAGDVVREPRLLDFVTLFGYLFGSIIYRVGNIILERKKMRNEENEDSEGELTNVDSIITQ
Sequence of PfCRT^Dd2 (Q9N623 whole entry A220S/I356T/K76T/M74I/N326S/N75E/Q271E/R371I): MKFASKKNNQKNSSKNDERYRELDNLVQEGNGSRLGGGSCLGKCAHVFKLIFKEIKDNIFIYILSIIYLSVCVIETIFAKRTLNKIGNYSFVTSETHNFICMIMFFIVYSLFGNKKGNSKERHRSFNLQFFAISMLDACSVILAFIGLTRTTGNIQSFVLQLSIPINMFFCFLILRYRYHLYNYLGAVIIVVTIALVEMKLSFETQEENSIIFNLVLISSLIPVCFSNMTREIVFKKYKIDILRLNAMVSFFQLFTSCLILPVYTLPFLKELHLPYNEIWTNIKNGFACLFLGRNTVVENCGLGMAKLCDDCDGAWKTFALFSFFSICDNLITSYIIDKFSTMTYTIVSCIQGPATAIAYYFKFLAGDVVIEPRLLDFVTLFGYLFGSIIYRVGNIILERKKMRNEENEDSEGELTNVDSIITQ
T1 sequence (Q8IDM6 whole entry): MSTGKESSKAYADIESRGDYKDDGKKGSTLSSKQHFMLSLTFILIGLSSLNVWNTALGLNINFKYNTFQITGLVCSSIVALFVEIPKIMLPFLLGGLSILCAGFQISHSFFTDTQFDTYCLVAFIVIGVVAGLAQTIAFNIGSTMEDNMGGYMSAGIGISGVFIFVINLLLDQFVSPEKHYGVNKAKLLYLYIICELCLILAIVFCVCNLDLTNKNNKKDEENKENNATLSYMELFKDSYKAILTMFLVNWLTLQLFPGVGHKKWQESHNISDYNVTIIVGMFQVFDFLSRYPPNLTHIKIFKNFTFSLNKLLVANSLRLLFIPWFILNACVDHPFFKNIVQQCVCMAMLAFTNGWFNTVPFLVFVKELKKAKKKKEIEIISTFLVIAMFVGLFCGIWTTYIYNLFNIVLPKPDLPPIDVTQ

Substance | [3H]CQ transport, non-expressing oocytes ([1]; Experiment 1) | [3H]CQ transport, non-expressing oocytes ([1]; Experiment 2) | [3H]CQ transport, non-expressing oocytes ([1]; Experiment 3) | [3H]CQ transport, non-expressing oocytes ([1]; Experiment 4) | [3H]CQ transport, PfCRTEcu1110 ([2]; Experiment 1) | [3H]CQ transport, PfCRTEcu1110 ([2]; Experiment 2) | [3H]CQ transport, PfCRTEcu1110 ([2]; Experiment 3) | [3H]CQ transport, PfCRTEcu1110 ([2]; Experiment 4) | [3H]CQ transport, PfNT1 ([3]; Experiment 1) | [3H]CQ transport, PfNT1 ([3]; Experiment 2) | [3H]CQ transport, PfNT1 ([3]; Experiment 3) | [3H]CQ transport, PfNT1 ([3]; Experiment 4) | [3H]CQ transport, PfCRTDd2 ([4]; Experiment 1) | [3H]CQ transport, PfCRTDd2 ([4]; Experiment 2) | [3H]CQ transport, PfCRTDd2 ([4]; Experiment 3) | [3H]CQ transport, PfCRTDd2 ([4]; Experiment 4) | [3H]CQ transport, PfCRT3D7 ([5]; Experiment 1) | [3H]CQ transport, PfCRT3D7 ([5]; Experiment 2) | [3H]CQ transport, PfCRT3D7 ([5]; Experiment 3) | [3H]CQ transport, PfCRT3D7 ([5]; Experiment 4)
DPVNF [VF-6-derived peptide] | 2.53 % PfCRTDd2 control | 2.61 % PfCRTDd2 control | 2.41 % PfCRTDd2 control | 2.43 % PfCRTDd2 control | 45.52 % PfCRTDd2 control | 43.68 % PfCRTDd2 control | 37.35 % PfCRTDd2 control | 43.35 % PfCRTDd2 control | 3.85 % PfCRTDd2 control | 3.98 % PfCRTDd2 control | 3.94 % PfCRTDd2 control | 3.99 % PfCRTDd2 control | 116.36 % PfCRTDd2 control | 119.52 % PfCRTDd2 control | 110.63 % PfCRTDd2 control | 125.53 % PfCRTDd2 control | 17.63 % PfCRTDd2 control | 14.86 % PfCRTDd2 control | 18.47 % PfCRTDd2 control | 17.33 % PfCRTDd2 control
PVNF [VF-6-derived peptide] | 2.32 % PfCRTDd2 control | 2.21 % PfCRTDd2 control | 2.25 % PfCRTDd2 control | 2.16 % PfCRTDd2 control | 47.86 % PfCRTDd2 control | 40.15 % PfCRTDd2 control | 37.75 % PfCRTDd2 control | 41.78 % PfCRTDd2 control | 3.55 % PfCRTDd2 control | 3.73 % PfCRTDd2 control | 3.85 % PfCRTDd2 control | 3.52 % PfCRTDd2 control | 115.75 % PfCRTDd2 control | 122.53 % PfCRTDd2 control | 112.64 % PfCRTDd2 control | 109.74 % PfCRTDd2 control | 16.17 % PfCRTDd2 control | 15.91 % PfCRTDd2 control | 16.12 % PfCRTDd2 control | 16.15 % PfCRTDd2 control
VDPVN [VF-6-derived peptide] | 2.84 % PfCRTDd2 control | 2.91 % PfCRTDd2 control | 2.78 % PfCRTDd2 control | 2.94 % PfCRTDd2 control | 40.67 % PfCRTDd2 control | 44.84 % PfCRTDd2 control | 45.43 % PfCRTDd2 control | 46.24 % PfCRTDd2 control | 2.85 % PfCRTDd2 control | 2.88 % PfCRTDd2 control | 2.95 % PfCRTDd2 control | 2.89 % PfCRTDd2 control | 120.53 % PfCRTDd2 control | 112.56 % PfCRTDd2 control | 120.67 % PfCRTDd2 control | 119.43 % PfCRTDd2 control | 18.56 % PfCRTDd2 control | 19.52 % PfCRTDd2 control | 15.43 % PfCRTDd2 control | 18.35 % PfCRTDd2 control
